According to patent publication US10577349B2 (Sanford Burnham Prebys Medical Discovery Institute, priority 2015, dated 2020):
Values after ≈ are worked out from the molar mass of the structure shown. Values joined by “and” are separate entries in the source; they are usually repeats but may differ in a detail not shown here. Equal entries are not always repeated.

Tests used:
[1] = Blood chemistry following Compound 38 IP administration; assay type: in vivo; conditions: Compound 38 1 mg/kg IP, individual mice #4-#6
Description: The growth of A375 tumors in immunodeficient mice subjected to either BRAFi alone or BRAFi combined with Compound 38 was monitored in vivo. Compound 38 toxicity in mice was monitored by liver function (Table 5).

[2] = Hepatic Microsome Stability Mouse; assay type: in vitro ADME
[3] = test system: parental and BRAFi-resistant melanoma cultures (A375, WM793, Lu1205); assay: 2D growth and colony-forming efficiency in parental and BRAFi-resistant melanoma cultures; assay type: cell-based, human; conditions: parental (sensitive) and BRAFi-resistant cultures
Description: For the colony formation assay, cells were plated in triplicate at 500 cells/well in 6-well plates and grown for 16 h before compounds were added for 1-2 weeks, depending on cell line. Colonies were stained with Accustain Crystal Violet solution (Sigma-Aldrich) for 30 min. Plates were rinsed with water, and colonies (>50 cells per clone) were counted. Colony formation efficiency was calculated relative to the number of colonies in control (DMSO)-treated wells. For soft agar assays, melanoma cells were mixed with agar at a final concentration of 0.35% and layered on top of 0.7% agar in 6-well plates. Media supplemented with different compounds was added to plates and changed once per week. After 4 weeks, colonies were counted in 10 random high-power fields.
To confirm the effect of Compound 38 on the eIF4F complex in BRAFi resistant cultures on neoplastic growth, Compound 38 effectiveness on their two-dimensional (2D) growth in vitro was assessed. […] Parental and BRAFi-resistant NF1-mutant melanomas (A) were monitored for their response to Compound 38 at the indicated concentrations and for their ability to form CFE (B) (A375: FIG. 16A and FIG. 16B, WM793: FIG. 17A and FIG. 17B, Lu1205: FIG. 18A and FIG. 18B). Effectiveness of Compound 38 in NF1-mutant melanoma was further confirmed in primary cultures (FIG. 19A and FIG. 19B).

A375 = assay: 48 h Cytotoxicity A375; assay type: cell-based; conditions: Homo sapiens, A-375
eIF4F complex = target: T1, eIF4F complex (Homo sapiens, UniProt Q04637); assay: m7GTP pull-down assay, BRAFi-sensitive and -resistant melanoma cells; assay type: cell-based
T1 construct: PLX4032), or Compound 38; endogenous in cells; host or cells: A375, A375R, Lu1205R, WM793R melanoma cells
Description: As previously described (Dowling R J, et al. mTORC1-mediated cell proliferation, but not cell growth, controlled by the 4E-BPs. Science. 2010; 328:1172-6), cells growing in 100 mm plates were washed (cold PBS), collected, and lysed in 50 mM MOPS/KOH (7.4), 100 mM NaCl, 50 mM NaF, 2 mM EDTA, 2 mM EGTA, 1% NP40, 1% Na-DOC, 7 mM β-mercaptoethanol, protease inhibitors and phosphatase inhibitor cocktail (Roche). Lysates were incubated with m7-GDP-agarose beads (Jena Bioscience) for 20 minutes, washed 4 times with the washing buffer containing 50 mM MOPS/KOH (7.4), 100 mM NaCl, 50 mM NaF, 0.5 mM EDTA, 0.5 mM EGTA, 7 mM (3-mercaptoethanol, 0.5 mM PMSF, 1 mM Na3VO4 and 0.1 mM GTP, and bound proteins were eluted by boiling the beads in loading buffer. m7-GDP-agarose pulled down material was analyzed by Western blot analysis.
As levels of the eIF4F complex inversely correlate with the effectiveness of various cancer therapies, the integrity of the eIF4F complex after treating melanoma cells with a combination of BRAFi vemurafenib (PLX4032) and Compound 38 was assessed. […] A375 and A375R (PLX4032-resistant) cells were treated with vehicle (DMSO), a BRAFi (vemurafenib; PLX4032), or Compound 38 at the indicated doses for 24 hours. Cell lysates ([…]) were subjected to m^7GTP pull-down. Amounts of the indicated proteins in input (5%) or pull-down (50%) samples were determined by Western blotting; 3-actin served as a loading control (input) and to exclude contamination (m^7GTP pull-down).

[4] = test system: Nras^Q61K/Ink4a^−/− melanoma tumors; assay: Inducible Nras^Q61K/Ink4a^−/− genetic melanoma model; assay type: in vivo, mice; conditions: 0.5 mg/kg intraperitoneal twice a week from week 11; compared with control nontreated group
Description: In vivo, Compound 38 was evaluated using an inducible Nras^Q61K/Ink4a^−/− genetic model in which melanoma tumors emerge within 16 to 20 weeks (FIG. 20). Administration of Compound 38 only, starting 11 weeks after genetic inactivation of Ink4a and induction of […] (about 10-14 days prior to tumor appearance), delayed tumor onset (from 20-26 weeks), and reduced tumor incidence, by 50%, compared with the control nontreated group. Mice of the Nras^Q61K:Ink4a^−/− genotype or WT mice (38-40 mice for each genotype) were administered vehicle or Compound 38 at 0.5 mg/kg by intraperitoneal injection twice a week starting at week 11 after Nras^Q61K activation and Ink4a inactivation. Tumor development was monitored twice per week. Latency and frequency of melanoma development over the 21-week treatment period (weeks 11-32) are shown.

[5] = Aqueous Solubility in 1xPBS, pH 7.4; assay type: physicochemical; conditions: pH 7.4, aqueous buffer
[6] = test system: UACC903 and A375 cell lines; assay: Western blot validation of RPPA data; assay type: cell-based, human
Description: Cells were rinsed with PBS and lysed in culture plates with lysis buffer (50 mM Tris-HCl, pH 7.4, 150 mM NaCl, 1% NP-40, 1 mM EDTA, 10 μg/ml aprotinin, 1 μg/ml pepstatin A, 10 μg/ml leupeptin, 1 mM phenylmethylsulfonyl fluoride, and 1 mM sodium orthovanadate). Protein concentration was determined using Coomassie Plus Protein Assay Reagent (Thermo Scientific). Equal amounts of cell lysate proteins (50 μg) were resolved by SDS-PAGE and transferred to polyvinylidene difluoride membranes (PerkinElmer Life Sciences). Membranes were blocked with 5% BSA/TBST for 1 h and incubated with primary antibodies for 1 h at room temperate or overnight at 4° C., with shaking. Following three TBST washes, membranes were incubated for 1 h at room temperature with goat anti-rabbit Alexa Fluor 680 F(ab′)2 or goat anti-mouse IRDye 800 F(ab′)2 diluted 1:10,000. Bound antibodies were detected using the Odyssey Infrared Imaging System (LiCor Biosciences), or by exposing them to X-ray blue film.
A reverse phase protein array (RPPA) analysis of BRAF- and NRAS-mutant melanomas was performed to identify protein networks affected by Compound 38 (Table 4).

Structure (SMILES): O=C(/C=C/c1cncc(F)c1)c1c(-c2ccccc2)c2cc(Cl)ccc2[nH]c1=O [Compound 38, 6-Chloro-3-[3-(5-fluoro-pyridin-3-yl)-acryloyl]-4-phenyl-1H-quinolin-2-one]
- CRE (Kidney) [1]: <18 µmol/L
- ALB (Liver) ([1]; 1 mg/kg): 32 g/L (2×) and 34 g/L
- ALP (Liver) ([1]; 1 mg/kg): 88 μ/L and 54 μ/L and 24 μ/L
- ALT (Liver) ([1]; 1 mg/kg): 126 μ/L and >1000 μ/L and 152 μ/L
- AMY (Pancreas) ([1]; 1 mg/kg): 701 μ/L and 811 μ/L and 1625 μ/L
- BUN (Kidney) ([1]; 1 mg/kg): 7.5 mmol/L and 9.9 mmol/L and 7.9 mmol/L
- CA (Electrolytes) ([1]; 1 mg/kg): 2.25 mmol/L and 2.1 mmol/L and 2.14 mmol/L
- GLOB (Liver) ([1]; 1 mg/kg): 10 g/L and 11 g/L (2×)
- GLU (General metabolism) ([1]; 1 mg/kg): 17.6 mmol/L and 13.8 mmol/L and 16.5 mmol/L
- K^+ (Electrolytes) ([1]; 1 mg/kg): 5.5 mmol/L and 8 mmol/L and 6.5 mmol/L
- Na^+ (Electrolytes) ([1]; 1 mg/kg): 137 mmol/L (2×) and 146 mmol/L
- PHOS (Electrolytes) ([1]; 1 mg/kg): 2.4 mmol/L and 2.27 mmol/L and 1.64 mmol/L
- TBIL (Liver) ([1]; 1 mg/kg): 5 μmol/L and 4 μmol/L (2×)
- TP (Liver) ([1]; 1 mg/kg): 42 g/L and 44 g/L and 43 g/L
- Hepatic Microsome Stability (% remaining at 1 Hr) Mouse [2]: 38.69 % remaining
- Hepatic Microsome Stability (% remaining at 1 Hr) Mouse (no NADPH) ([2]; no NADPH): 53.97 % remaining
- Growth in 2D and colony-forming efficiency (CFE) [3]: effectively attenuated in both parental (sensitive) and resistant cultures
- IC50 (A375): < 2000 nM
- dissociation of eIF4G1 from eIF4E in BRAFi-resistant cells (eIF4F complex; A375R, Lu1205R and WM793R cells): significantly promoted a dose dependent dissociation of eIF4G1 from eIF4E
- eIF4G1 association with eIF4E (eIF4F complex; A375 and A375R, 24 hours): more robust effect
- amount of eIF4G1 bound to eIF4E, Compound 38/BRAFi combination (eIF4F complex; combination with BRAFi PLX4032, not seen following BRAFi treatment alone): decreased the amount of eIF4G1 bound to eIF4E
- reduced tumor incidence [4]: 50%
- tumor onset, delayed (from - to) [4]: 20-26 weeks
- solubility [5]: 5.6 µg/mL (≈ 13.8 µM)
- Western blot: phosphorylation of S6, mTOR, P70S6K, TSC2 and 4E-BP1 [6]: dose dependent inhibitory effects
